Measurements taken from patent publication US10035790B2, “RORγ modulators” (BRISTOL-MYERS SQUIBB COMPANY, priority 2012, dated 2018).

Each compound was assayed against T1, ligand binding domain of human RORγ (A262-S507) (Homo sapiens, UniProt P51449) (assay: General RORγ SPA binding assay (competition with [3H]25-hydroxycholesterol)). Conditions: RORγ SPA binding assay, inhibition of [3H]25-hydroxycholesterol binding; read-out: IC50.
T1 construct: made in house; host or cells: E. coli
T1 sequence (P51449 262-507): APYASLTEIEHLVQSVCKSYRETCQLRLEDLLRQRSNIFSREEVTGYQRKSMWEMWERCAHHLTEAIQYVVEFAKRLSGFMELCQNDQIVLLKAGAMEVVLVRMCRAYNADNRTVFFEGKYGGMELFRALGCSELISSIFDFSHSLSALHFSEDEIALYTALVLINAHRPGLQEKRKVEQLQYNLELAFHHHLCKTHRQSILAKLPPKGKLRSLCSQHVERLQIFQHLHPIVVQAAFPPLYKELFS
Experimental: Example 2 General RORγ SPA Binding Assay
The binding of potential ligands to RORγ is measured by competition with [^3H]25-hydroxycholesterol using a scintillation proximity assay (SPA) binding assay. The ligand binding domain of human RORγ (A262-S507) with an N-terminal His tag is expressed in E. coli and purified using nickel affinity chromotography. 50 nM RORγ (A262-S507) is incubated with test compound at varying concentrations for 15 min at room temperature in PBS buffer containing 0.5% fatty acid free BSA. […] of [^3H]25-hydroxycholesterol is then added, and the reaction is incubated for 15 min. 4 mg/mL of Ysi Copper HIS-TAG SPA Beads (Perkin Elmer) are added, and the mixture is incubated for 30 min. The reaction is read on a MicroBeta Trilux scintillation plate reader (Perkin Elmer). IC50 values are determined from the percentage inhibition of [^3H]25-hydroxycholesterol binding.
For `Cc1ncc(C(=O)NCc2cccc(C(F)(F)F)n2)c(C2(F)CCN(C(=O)Cc3c(F)cccc3F)CC2)n1` [Compound A104, 4-(1-(2-(2,6-difluorophenyl)acetyl)-4-fluoropiperidin-4-yl)-2-methyl-N-((6-(trifluoromethyl)pyridin-2-yl)methyl)pyrimidine-5-carboxamide], the IC50 was 231 nM.
With `Cc1ncc(C(=O)NCc2ccc(Cl)c(Cl)c2)c(C2CCN(C(=O)Cc3c(F)cccc3F)CC2)n1` [Compound A2, N-(3,4-dichlorobenzyl)-4-(1-(2-(2,6-difluorophenyl)acetyl)piperidin-4-yl)-2-methylpyrimidine-5-carboxamide] the IC50 was 6.8 nM.
In the case of `Cc1nc(C)c(-c2nc(-c3cccc(C(F)(F)F)c3)no2)c(C2CCN(C(=O)c3c(F)cccc3F)CC2)n1` [Compound C65, 4-{1-[(2,6-Difluorophenyl)carbonyl]piperidin-4-yl}-2,6-dimethyl-5-{3-[3-(trifluoromethyl)phenyl]-1,2,4-oxadiazol-5-yl}pyrimidine], the IC50 is reported as 2730 nM.
With `Cc1cc(C)cc(CNC(=O)c2cnc(C)nc2C2CCN(C(=O)Cc3cc(F)cc(F)c3)CC2)c1` [Compound A27, 4-(1-(2-(3,5-difluorophenyl)acetyl)piperidin-4-yl)-N-(3,5-dimethylbenzyl)-2-methylpyrimidine-5-carboxamide] the IC50 was 720 nM.
`CC(O)(COc1ccnc(C(F)(F)F)n1)c1cnc(NCC(F)F)nc1C1CCN(C(=O)Nc2c(F)cccc2F)CC1` (centres unmarked) [Compound D39, 4-{2-[(2,2-Difluoroethyl)amino]-5-(1-hydroxy-1-methyl-2-{[2-(trifluoromethyl)pyrimidin-4-yl]oxy}ethyl)pyrimidin-4-yl}-N-(2,6-difluorophenyl)piperidine-1-carboxamide] gave an IC50 of 5.1 nM.
In the case of `Cc1nc(N)nc(C2CCN(C(=O)Oc3ccccc3Cl)CC2)c1-c1nnc(-c2ccnc(C(F)(F)F)n2)o1` [Compound C51, 2-Chlorophenyl 4-(2-amino-6-methyl-5-{5-[2-(trifluoromethyl)pyrimidin-4-yl]-1,3,4-oxadiazol-2-yl}pyrimidin-4-yl)piperidine-1-carboxylate], the IC50 is reported as 10.5 nM.
`COc1ncc(C(=O)NCc2ccc(Cl)c(Cl)c2)c(C2CCN(C(=O)Cc3c(F)cccc3F)CC2)n1` [Compound A86, N-(3,4-dichlorobenzyl)-4-(1-(2-(2,6-difluorophenyl)acetyl)piperidin-4-yl)-2-methoxypyrimidine-5-carboxamide] was tested, and the IC50 was 7 nM.
`Cc1nc(C)c(-c2ncc(-c3ccnc(C(F)(F)F)n3)o2)c(C2CCN(C(=O)Nc3c(F)cccc3F)CC2)n1` [Compound C68, N-(2,6-Difluorophenyl)-4-(2,6-dimethyl-5-{5-[2-(trifluoromethyl)pyrimidin-4-yl]-1,3-oxazol-2-yl}pyrimidin-4-yl)piperidine-1-carboxamide] showed an IC50 of 102 nM.
`Cc1cc(C)cc(CNC(=O)c2cncnc2C2CCN(C(=O)Cc3c(F)cccc3F)CC2)c1` [Compound A57, 4-(1-(2-(2,6-difluorophenyl)acetyl)piperidin-4-yl)-N-(3,5-dimethylbenzyl)pyrimidine-5-carboxamide] gave an IC50 of 21.8 nM.
`Nc1ncc(C(=O)COc2ccnc(C(F)(F)F)n2)c(C2CCN(C(=O)Cc3c(F)cccc3F)CC2)n1` [Compound M5, 1-(2-Amino-4-{1-[(2,6-difluorophenyl)acetyl]piperidin-4-yl}pyrimidin-5-yl)-2-{[2-(trifluoromethyl)pyrimidin-4-yl]oxy}ethanone] gave an IC50 of 16.3 nM.
`Cc1nc(C)c(-c2nc(-c3cccc(C(F)(F)F)c3)no2)c(C2CCN(C(=O)Nc3c(F)cccc3C(F)(F)F)CC2)n1` [Compound C64, 4-(2,6-Dimethyl-5-{3-[3-(trifluoromethyl)phenyl]-1,2,4-oxadiazol-5-yl}pyrimidin-4-yl)-N-[2-fluoro-6-(trifluoromethyl)phenyl]piperidine-1-carboxamide] showed an IC50 of 183 nM.
`Cc1cc(C)cc(CNC(=O)c2cnc(C)nc2C2CCN(C(=O)Cc3cccc(F)c3F)CC2)c1` [Compound A18, 4-(1-(2-(2,3-difluorophenyl)acetyl)piperidin-4-yl)-N-(3,5-dimethylbenzyl)-2-methylpyrimidine-5-carboxamide] gave an IC50 of 124 nM.
`CNC(COc1cccc(C(F)(F)F)n1)c1cnc(N)nc1C1CCN(C(=O)Nc2c(F)cccc2F)CC1` (centres unmarked) [Compound N27, 4-{2-Amino-5-[1-(methylamino)-2-{[6-(trifluoromethyl)pyridin-2-yl]oxy}ethyl]pyrimidin-4-yl}-N-(2,6-difluorophenyl)piperidine-1-carboxamide] showed an IC50 of 18.2 nM.
In the case of `CSc1ncc(C(C)(O)COc2ccnc(C(F)(F)F)n2)c(C2CCN(C(=O)Nc3c(F)cccc3F)CC2)n1` (centres unmarked) [Compound D28, N-(2,6-Difluorophenyl)-4-[5-(1-hydroxy-1-methyl-2-{[2-(trifluoromethyl)pyrimidin-4-yl]oxy}ethyl)-2-(methylthio)pyrimidin-4-yl]piperidine-1-carboxamide], the IC50 is reported as 14.7 nM.
`Cc1ncc(C(C)(O)CNc2cccc(C(F)(F)F)c2)c(C2CCN(C(=O)Cc3c(F)cccc3F)CC2)n1` (centres unmarked) [Compound D4, 2-(2,6-difluorophenyl)-1-(4-(5-(2-hydroxy-1-((3-(trifluoromethyl)phenyl)amino)propan-2-yl)-2-methylpyrimidin-4-yl)piperidin-1-yl)ethanone] gave an IC50 of 6.1 nM.
`Cc1ncc(C(F)(F)CNc2nccc(C(F)(F)F)n2)c(C2CCN(C(=O)Nc3c(F)cccc3F)CC2)n1` [Compound N20, N-(2,6-Difluorophenyl)-4-[5-(1,1-difluoro-2-{[4-(trifluoromethyl)pyrimidin-2-yl]amino}ethyl)-2-methylpyrimidin-4-yl]piperidine-1-carboxamide] gave an IC50 of 21.2 nM.
Compound `O=C(Cc1c(F)cccc1F)N1CCC(c2ncncc2C(=S)NCc2ccc(Cl)c(Cl)c2)CC1` [Compound L1, N-(3,4-Dichlorobenzyl)-4-(1-(2-(2,6-difluorophenyl)acetyl)piperidin-4-yl)pyrimidine-5-carbothioamide] has an IC50 of 81 nM.
Work on `Cc1cc(C)cc(CNC(=O)c2c(C3CCN(C(=O)Cc4c(F)cccc4F)CC3)nc(C)[nH]c2=O)c1` [Compound I3, 4-(1-(2-(2,6-Difluorophenyl)acetyl)piperidin-4-yl)-N-(3,5-dimethylbenzyl)-2-methyl-6-oxo-1,6-dihydropyrimidine-5-carboxamide] yielded an IC50 of 10.7 nM.
In the case of `Cc1cc(C)cc(CNC(=O)c2cnc(C)nc2C2CCN(C(=O)[C@@H](C)c3ccccc3)CC2)c1` [Compound A26, (S)-N-(3,5-dimethylbenzyl)-2-methyl-4-(1-(2-phenylpropanoyl)piperidin-4-yl)pyrimidine-5-carboxamide], the IC50 is reported as 446 nM.
Work on `Cc1nc(C2CCN(C(=O)Cc3c(F)cccc3F)CC2)c(C(=O)NCc2cccc(C(F)(F)F)n2)c(=O)n1C` [Compound I7, 4-(1-(2-(2,6-Difluorophenyl)acetyl)piperidin-4-yl)-1,2-dimethyl-6-oxo-N-((6-(trifluoromethyl)pyridin-2-yl)methyl)-1,6-dihydropyrimidine-5-carboxamide] yielded an IC50 of 654 nM.
`CSc1ncc(C(=O)COc2ccnc(C(F)(F)F)n2)c(C2CCN(C(=O)Nc3c(F)cccc3F)CC2)n1` [Compound M2, N-(2,6-Difluorophenyl)-4-[2-(methylthio)-5-({[2-(trifluoromethyl)pyrimidin-4-yl]oxy}acetyl)pyrimidin-4-yl]piperidine-1-carboxamide] showed an IC50 of 18.6 nM.
`Cc1cc(C)cc(CCC(C)(O)c2cnc(C)nc2C2CCN(C(=O)Cc3c(F)cccc3F)CC2)c1` (centres unmarked) [Compound D15, 2-(2,6-Difluorophenyl)-1-(4-(5-(4-(3,5-dimethylphenyl)-2-hydroxybutan-2-yl)-2-methylpyrimidin-4-yl)piperidin-1-yl)ethanone] showed an IC50 of 33.9 nM.
`C/C(=N\Oc1ccnc(C(F)(F)F)c1)c1cnc(N)nc1C1CCN(C(=O)Nc2c(F)cccc2F)CC1` [Compound B53, 4-{2-amino-5-[(1E)-N-{[2-(trifluoromethyl)pyridin-4-yl]oxy}ethanimidoyl]pyrimidin-4-yl}-N-(2,6-difluorophenyl)piperidine-1-carboxamide] gave an IC50 of 35.1 nM.
`COc1nc(C)nc(C2CCN(C(=O)Cc3c(F)cccc3F)CC2)c1C(=O)NCc1cccc(Cl)c1` [Compound A111, N-(3-Chlorobenzyl)-4-(1-(2-(2,6-difluorophenyl)acetyl)piperidin-4-yl)-6-methoxy-2-methylpyrimidine-5-carboxamide] was tested, and the IC50 was 9.8 nM.
For `C/C(=N\Oc1ccnc(C(F)(F)F)n1)c1cnc(C)nc1C1CCN(C(=O)Nc2c(F)cccc2C(F)(F)F)CC1` [Compound B39, N-[2-Fluoro-6-(trifluoromethyl)phenyl]-4-{2-methyl-5-[(1E)-N-{[2-(trifluoromethyl)pyrimidin-4-yl]oxy}ethanimidoyl]pyrimidin-4-yl}piperidine-1-carboxamide], the IC50 was 93.3 nM.
`Cc1ncc(/C(=N/Oc2ccnc(C(F)(F)F)c2)C(F)F)c(C2CCN(C(=O)Cc3c(F)cccc3F)CC2)n1` [Compound B32, (1Z)-1-(4-{1-[(2,6-Difluorophenyl)acetyl]piperidin-4-yl}-2-methylpyrimidin-5-yl)-2,2-difluoroethanone O-[2-(trifluoromethyl)pyridin-4-yl]oxime] was tested, and the IC50 was 15.3 nM.
